According to US8211935B2, “Heterocyclic derivatives for modulation of calcium channels” (Vertex Pharmaceuticals Incorporated, priority 2004, dated 2012):

Target: T1, CaV2.2 (Homo sapiens, UniProt Q00975)
T1 construct: expressed in transfected cells; host or cells: HEK293
Experiment: VIPR optical membrane potential assay with electrical stimulation
Assay type: cell-based
Settings: not given
Procedure, shortened: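 HEK293 cells stably expressing CaV2.2, stained with CC2-DMPE (10 μM final) and oxonol voltage-sensitive dyes, compound added with BaCl2. Membrane potential response evoked by 3-5 s electrical stimulation. Read as background-subtracted 460/580 nm emission ratio, response R=Rf/Ri, normalized to mibefradil positive and no-drug negative controls.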

T1 sequence (Q00975 whole entry): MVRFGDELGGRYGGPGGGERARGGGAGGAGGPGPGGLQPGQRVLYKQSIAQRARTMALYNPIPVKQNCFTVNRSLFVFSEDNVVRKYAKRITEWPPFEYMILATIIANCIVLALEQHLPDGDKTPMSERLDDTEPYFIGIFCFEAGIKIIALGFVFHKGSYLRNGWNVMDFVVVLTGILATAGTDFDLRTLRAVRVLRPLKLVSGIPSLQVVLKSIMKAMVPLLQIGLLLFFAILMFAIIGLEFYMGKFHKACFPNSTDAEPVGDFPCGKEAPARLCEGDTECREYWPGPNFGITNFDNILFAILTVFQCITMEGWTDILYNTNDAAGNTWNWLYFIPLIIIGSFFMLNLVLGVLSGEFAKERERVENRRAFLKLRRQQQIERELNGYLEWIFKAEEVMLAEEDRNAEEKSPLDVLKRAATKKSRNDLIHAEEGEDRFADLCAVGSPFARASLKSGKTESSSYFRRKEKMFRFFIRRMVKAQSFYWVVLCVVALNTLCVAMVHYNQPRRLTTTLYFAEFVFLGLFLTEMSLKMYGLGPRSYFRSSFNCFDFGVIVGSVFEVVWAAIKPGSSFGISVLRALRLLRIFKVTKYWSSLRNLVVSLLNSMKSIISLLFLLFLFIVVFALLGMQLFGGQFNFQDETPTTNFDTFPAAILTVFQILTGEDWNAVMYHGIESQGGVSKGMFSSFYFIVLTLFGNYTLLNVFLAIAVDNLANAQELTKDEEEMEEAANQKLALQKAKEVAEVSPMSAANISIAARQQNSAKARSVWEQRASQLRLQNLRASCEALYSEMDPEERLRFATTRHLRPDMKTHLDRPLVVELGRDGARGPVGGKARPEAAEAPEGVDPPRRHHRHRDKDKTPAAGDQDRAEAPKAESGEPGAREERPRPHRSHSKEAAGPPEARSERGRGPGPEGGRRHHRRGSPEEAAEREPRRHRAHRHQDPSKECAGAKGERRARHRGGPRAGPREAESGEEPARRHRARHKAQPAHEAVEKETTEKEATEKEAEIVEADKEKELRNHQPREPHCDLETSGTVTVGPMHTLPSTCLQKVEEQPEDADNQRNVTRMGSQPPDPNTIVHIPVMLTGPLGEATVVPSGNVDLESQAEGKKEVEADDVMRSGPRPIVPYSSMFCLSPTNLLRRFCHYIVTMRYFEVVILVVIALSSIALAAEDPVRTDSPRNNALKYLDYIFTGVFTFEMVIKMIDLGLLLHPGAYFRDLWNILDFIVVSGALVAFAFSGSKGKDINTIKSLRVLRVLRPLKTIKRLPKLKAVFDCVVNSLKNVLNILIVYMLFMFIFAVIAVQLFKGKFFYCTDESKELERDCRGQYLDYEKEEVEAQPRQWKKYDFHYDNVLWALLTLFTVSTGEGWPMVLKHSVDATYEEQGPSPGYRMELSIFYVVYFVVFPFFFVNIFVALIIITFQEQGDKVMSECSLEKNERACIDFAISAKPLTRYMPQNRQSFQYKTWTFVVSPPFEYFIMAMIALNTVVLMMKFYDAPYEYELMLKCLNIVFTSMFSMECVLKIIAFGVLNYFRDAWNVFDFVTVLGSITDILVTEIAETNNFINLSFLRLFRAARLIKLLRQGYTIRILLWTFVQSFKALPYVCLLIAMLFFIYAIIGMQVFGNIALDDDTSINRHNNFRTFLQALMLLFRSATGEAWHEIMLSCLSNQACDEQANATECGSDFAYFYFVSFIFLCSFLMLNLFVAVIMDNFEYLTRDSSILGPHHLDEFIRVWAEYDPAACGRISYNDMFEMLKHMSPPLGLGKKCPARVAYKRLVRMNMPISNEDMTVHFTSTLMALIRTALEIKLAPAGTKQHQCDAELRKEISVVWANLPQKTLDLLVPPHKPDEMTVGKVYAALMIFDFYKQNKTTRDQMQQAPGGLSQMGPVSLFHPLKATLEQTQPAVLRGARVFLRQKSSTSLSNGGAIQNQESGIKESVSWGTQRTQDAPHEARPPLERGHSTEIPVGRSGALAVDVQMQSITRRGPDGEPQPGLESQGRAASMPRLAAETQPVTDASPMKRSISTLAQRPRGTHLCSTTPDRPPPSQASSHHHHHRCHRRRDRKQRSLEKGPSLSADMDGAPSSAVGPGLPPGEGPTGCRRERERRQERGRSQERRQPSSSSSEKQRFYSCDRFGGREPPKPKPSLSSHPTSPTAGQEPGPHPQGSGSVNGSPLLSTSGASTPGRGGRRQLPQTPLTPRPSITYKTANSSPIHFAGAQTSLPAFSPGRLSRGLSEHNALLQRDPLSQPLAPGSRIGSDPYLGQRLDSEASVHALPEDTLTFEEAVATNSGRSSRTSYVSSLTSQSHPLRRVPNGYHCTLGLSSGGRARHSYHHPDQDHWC
T1 sequence (P54284 whole entry partner): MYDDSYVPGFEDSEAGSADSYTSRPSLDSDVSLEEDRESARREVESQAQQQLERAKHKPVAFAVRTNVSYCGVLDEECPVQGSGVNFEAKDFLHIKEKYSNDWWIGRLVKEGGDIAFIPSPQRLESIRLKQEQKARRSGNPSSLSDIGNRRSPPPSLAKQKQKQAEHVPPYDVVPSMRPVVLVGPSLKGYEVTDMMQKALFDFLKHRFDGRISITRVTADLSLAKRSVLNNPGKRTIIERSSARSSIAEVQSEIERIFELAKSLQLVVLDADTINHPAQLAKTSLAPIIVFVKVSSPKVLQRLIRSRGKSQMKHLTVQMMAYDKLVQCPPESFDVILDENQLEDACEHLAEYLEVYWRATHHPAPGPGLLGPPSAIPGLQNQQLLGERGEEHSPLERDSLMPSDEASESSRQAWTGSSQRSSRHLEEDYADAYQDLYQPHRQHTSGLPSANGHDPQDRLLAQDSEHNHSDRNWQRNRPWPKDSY
T1 sequence (P54289 25-946 partner limits assumed): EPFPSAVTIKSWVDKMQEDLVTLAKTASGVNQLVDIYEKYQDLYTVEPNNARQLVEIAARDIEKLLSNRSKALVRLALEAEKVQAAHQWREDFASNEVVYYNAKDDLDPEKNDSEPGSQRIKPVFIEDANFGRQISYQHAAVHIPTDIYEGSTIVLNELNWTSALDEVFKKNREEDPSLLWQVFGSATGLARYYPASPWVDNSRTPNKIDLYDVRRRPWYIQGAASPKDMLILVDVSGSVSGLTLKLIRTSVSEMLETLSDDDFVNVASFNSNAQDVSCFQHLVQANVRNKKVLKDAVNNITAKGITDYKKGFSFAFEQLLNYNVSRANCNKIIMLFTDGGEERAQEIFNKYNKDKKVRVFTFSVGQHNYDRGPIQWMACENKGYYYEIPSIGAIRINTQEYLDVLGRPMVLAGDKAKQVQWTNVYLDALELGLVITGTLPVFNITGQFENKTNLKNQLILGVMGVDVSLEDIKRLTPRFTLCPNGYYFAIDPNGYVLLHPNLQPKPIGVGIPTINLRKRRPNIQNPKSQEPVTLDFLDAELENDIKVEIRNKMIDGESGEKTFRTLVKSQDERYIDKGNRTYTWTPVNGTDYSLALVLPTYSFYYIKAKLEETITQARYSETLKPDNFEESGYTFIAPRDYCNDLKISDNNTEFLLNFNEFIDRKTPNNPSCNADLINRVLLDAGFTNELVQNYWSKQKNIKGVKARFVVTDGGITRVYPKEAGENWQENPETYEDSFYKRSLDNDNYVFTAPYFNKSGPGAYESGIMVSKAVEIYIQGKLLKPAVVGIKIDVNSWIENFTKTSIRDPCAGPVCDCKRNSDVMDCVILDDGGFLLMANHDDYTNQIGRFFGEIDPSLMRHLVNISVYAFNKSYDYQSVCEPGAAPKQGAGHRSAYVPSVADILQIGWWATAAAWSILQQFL
T1 sequence (P54289 947-1103 partner limits assumed): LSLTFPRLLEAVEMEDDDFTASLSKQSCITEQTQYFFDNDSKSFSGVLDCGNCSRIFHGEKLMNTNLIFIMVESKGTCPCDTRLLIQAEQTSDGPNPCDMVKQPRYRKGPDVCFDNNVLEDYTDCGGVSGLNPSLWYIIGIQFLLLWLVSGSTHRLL

| Compound | IC50 [µM] |
| --- | --- |
| Cc1c(C(=O)N2CCC3(CC2)OCCO3)[nH]c2ccc(S(=O)(=O)N3CCC(C)CC3)cc12 [compound 351] | 5 to 20 |
| CCN(CC)S(=O)(=O)c1ccc2oc(C(=O)N3CCC4(CC3)OCCO4)c(C)c2c1 [compound 356] | < 20 |

Same assay, conditions: Table 3, biological assay data; read-out: IC50

| Compound | IC50 [µM] |
| --- | --- |
| Cc1c(C(=O)N2CCCCCC2)oc2ccc(S(=O)(=O)N3CCC(C)CC3)cc12 [compound 347] | 5 to 20 |
| CC1CCN(S(=O)(=O)c2ccc3[nH]c(C(=O)N4CCCCCC4)cc3c2)CC1 [compound 348] | 5 to 20 |
| CC1CC(C)CN(S(=O)(=O)c2ccc3c(c2)cc(C(=O)NC2CC2)n3S(=O)(=O)c2ccccc2)C1 (stereo not drawn) [compound 349] | < 5 |
| Cc1c(C(=O)NCC2CCCO2)oc2ccc(S(=O)(=O)N3CCCCC3)cc12 (stereo not drawn) [compound 352] | 5 to 20 |
| Cc1c(C(=O)N(C)C)oc2ccc(S(=O)(=O)N3CCC(C)CC3)cc12 [compound 353] | 5 to 20 |
| O=C(c1cc2cc(S(=O)(=O)N3CCCCCC3)ccc2[nH]1)N1CCCCC1 [compound 354] | 5 to 20 |
| Cc1c(C(=O)NCC2CCCO2)[nH]c2ccc(S(=O)(=O)N3CCC(C)CC3)cc12 (stereo not drawn) [compound 355] | 5 to 20 |
| CC1CC(C)CN(S(=O)(=O)c2ccc3[nH]c(C(=O)NCc4ccccc4)cc3c2)C1 (stereo not drawn) [compound 357] | < 5 |
| O=C(c1cc2cc(S(=O)(=O)N3CCCCCC3)ccc2[nH]1)N1CCCCCC1 [compound 358] | 5 to 20 |
| Cc1c(C(=O)N2CCOCC2)oc2ccc(S(=O)(=O)N3CCC(C)CC3)cc12 [compound 359] | 5 to 20 |
| Cc1c(C(=O)N(C)Cc2ccccc2)oc2ccc(S(=O)(=O)N3CCOCC3)cc12 [compound 360] | 5 to 20 |
| Cc1c(C(=O)NC2CCCC2)oc2ccc(S(=O)(=O)N3CCOCC3)cc12 [compound 361] | < 20 |
| Cc1c(C(=O)N2CCCCCC2)[nH]c2ccc(S(=O)(=O)N3CC(C)CC(C)C3)cc12 (stereo not drawn) [compound 362] | < 5 |
| O=C(NCC1CCOCC1)c1cc2cc(S(=O)(=O)N3CCCCCC3)ccc2o1 [compound 363] | 5 to 20 |
| CC1CCN(C(=O)c2cc3cc(S(=O)(=O)N4CCCCCC4)ccc3[nH]2)CC1 [compound 364] | 5 to 20 |
| CNC(=O)c1oc2ccc(S(=O)(=O)N3CCCC(C)C3)cc2c1C (stereo not drawn) [compound 365] | 5 to 20 |
| CC1CC(C)CN(S(=O)(=O)c2ccc3[nH]c(C(=O)NC4CCCC4)cc3c2)C1 (stereo not drawn) [compound 366] | < 5 |
| CCN(CC)S(=O)(=O)c1ccc2oc(C(=O)N3CCCCC3)c(C)c2c1 [compound 367] | < 20 |
| CC1CCN(S(=O)(=O)c2ccc3[nH]c(C(=O)N4CCCCC4)cc3c2)CC1 [compound 368] | < 5 |
| CCCCN(C)C(=O)c1oc2ccc(S(=O)(=O)N3CCCC(C)C3)cc2c1C (stereo not drawn) [compound 369] | < 5 |
| CCN(CC)S(=O)(=O)c1ccc2oc(C(=O)NC3CCCCC3)c(C)c2c1 [compound 370] | 5 to 20 |
| Cc1c(C(=O)NC2CCCCC2)oc2ccc(S(=O)(=O)N3CCC4(CC3)OCCO4)cc12 [compound 371] | 5 to 20 |
| Cc1c(C(=O)N2CCOCC2)oc2ccc(S(=O)(=O)N3CCCCC3)cc12 [compound 372] | < 20 |
| Cc1c(C(=O)N(C)Cc2ccccc2)[nH]c2ccc(S(=O)(=O)N3CC(C)CC(C)C3)cc12 (stereo not drawn) [compound 373] | < 5 |
| CCN(CC)C(=O)c1cc2cc(S(=O)(=O)N3CC(C)CC(C)C3)ccc2n1CCCN1CCN(C)CC1 (stereo not drawn) [compound 374] | < 5 |
| COc1ccccc1CNC(=O)c1oc2ccc(S(=O)(=O)N3CCCC3)cc2c1C [compound 375] | 5 to 20 |

| Compound | IC50 [µM] |
| --- | --- |
| Cc1c(C(=O)N2CCC(C)CC2)oc2ccc(S(=O)(=O)N3CCCC(C)C3)cc12 (stereo not drawn) [compound 376] | < 5 |
| CCCCN(C)C(=O)c1cc2cc(S(=O)(=O)N3CC(C)CC(C)C3)ccc2[nH]1 (stereo not drawn) [compound 377] | < 5 |
| Cc1c(C(=O)N2CCCC(C)C2)oc2ccc(S(=O)(=O)N3CC(C)CC(C)C3)cc12 (stereo not drawn) [compound 378] | < 5 |
| Cc1c(C(=O)N2CCCCC2C)[nH]c2ccc(S(=O)(=O)N3CCCCCC3)cc12 (stereo not drawn) [compound 379] | 5 to 20 |
| CC1CCN(S(=O)(=O)c2ccc3cc(C(=O)N(C)C)[nH]c3c2)CC1 [compound 380] | < 20 |
| Cc1c(C(=O)NCCc2ccccc2)[nH]c2ccc(S(=O)(=O)N3CCC(C)CC3)cc12 [compound 381] | < 5 |
| O=C(NCc1ccccc1)c1cc2cc(S(=O)(=O)N3CCCCCC3)ccc2[nH]1 [compound 382] | < 5 |
| Cc1c(C(=O)NCC2CCOCC2)oc2ccc(S(=O)(=O)N3CCCC(C)C3)cc12 (stereo not drawn) [compound 383] | 5 to 20 |
| CCNC(=O)c1cc2cc(S(=O)(=O)N3CC(C)CC(C)C3)ccc2[nH]1 (stereo not drawn) [compound 384] | < 5 |
| Cc1c(C(=O)N2CCN(C)CC2)oc2ccc(S(=O)(=O)N3CCC(C)CC3)cc12 [compound 385] | 5 to 20 |
| O=C(NCC1CCCO1)c1cc2cc(S(=O)(=O)N3CCCCCC3)ccc2[nH]1 (stereo not drawn) [compound 386] | < 5 |
| CCCS(=O)(=O)n1c(C(=O)N2CCCCC2)cc2cc(S(=O)(=O)N3CC(C)CC(C)C3)ccc21 (stereo not drawn) [compound 387] | < 5 |
| CCN(CC)S(=O)(=O)c1ccc2oc(C(=O)N3CCCC(C)C3)c(C)c2c1 (stereo not drawn) [compound 388] | 5 to 20 |
| CC1CC(C)CN(S(=O)(=O)c2ccc3[nH]c(C(=O)N4CCCCC4)cc3c2)C1 (stereo not drawn) [compound 389] | < 5 |
| Cc1c(C(=O)NC2CCCC2)[nH]c2ccc(S(=O)(=O)N3CC(C)CC(C)C3)cc12 (stereo not drawn) [compound 390] | < 5 |
| CC1CC(C)CN(S(=O)(=O)c2ccc3c(c2)cc(C(=O)N2CCCCC2)n3C)C1 (stereo not drawn) [compound 391] | < 5 |
| CC1CCCCN1C(=O)c1cc2cc(S(=O)(=O)N3CCCCCC3)ccc2o1 (stereo not drawn) [compound 392] | 5 to 20 |
| Cc1c(C(=O)NCCc2ccccc2)oc2ccc(S(=O)(=O)N3CC(C)CC(C)C3)cc12 (stereo not drawn) [compound 393] | < 5 |
| Cc1ccc(CNS(=O)(=O)c2ccc3oc(C(=O)NC4CC4)c(C)c3c2)cc1 [compound 394] | < 20 |
| Cc1c(C(=O)NC2CC2)oc2ccc(S(=O)(=O)N3CCC(C)CC3)cc12 [compound 395] | 5 to 20 |
| Cc1c(C(=O)N(CCN(C)C)Cc2ccccc2)oc2ccc(S(=O)(=O)N3CCC(C)CC3)cc12 [compound 396] | < 5 |
| Cc1c(C(=O)NCc2ccccc2)oc2ccc(S(=O)(=O)N3CCCC(C)C3)cc12 (stereo not drawn) [compound 397] | 5 to 20 |
| O=C(NCc1ccccc1)c1cc2cc(S(=O)(=O)N3CCCCCC3)ccc2n1S(=O)(=O)c1ccccc1 [compound 398] | < 5 |
| CCN(CC)S(=O)(=O)c1ccc2oc(C(=O)NC(C)C)c(C)c2c1 [compound 399] | < 20 |
| CC(C)NC(=O)c1cc2cc(S(=O)(=O)N3CCCCCC3)ccc2[nH]1 [compound 400] | < 20 |
| Cc1c(C(=O)NCCCc2ccccc2)oc2ccc(S(=O)(=O)N3CCCC(C)C3)cc12 (stereo not drawn) [compound 401] | < 5 |

| Compound | IC50 [µM] |
| --- | --- |
| Cc1c(C(=O)N2CCCC2)oc2ccc(S(=O)(=O)N3CCCCCC3)cc12 [compound 402] | < 20 |
| CCOC(=O)N1CCN(C(=O)c2oc3ccc(S(=O)(=O)N4CCCC(C)C4)cc3c2C)CC1 (stereo not drawn) [compound 403] | < 5 |
| Cc1c(C(=O)N2CCN(C)CC2)oc2ccc(S(=O)(=O)N3CCCC(C)C3)cc12 (stereo not drawn) [compound 404] | 5 to 20 |
| CC1CC(C)CN(S(=O)(=O)c2ccc3[nH]c(C(=O)NCCC4CCOCC4)cc3c2)C1 (stereo not drawn) [compound 405] | < 5 |
| CC1CCCN(C(=O)c2cc3cc(S(=O)(=O)N4CC(C)CC(C)C4)ccc3o2)C1 (stereo not drawn) [compound 406] | < 5 |
| CC1CCN(S(=O)(=O)c2ccc3[nH]c(C(=O)NCC4CCCO4)cc3c2)CC1 (stereo not drawn) [compound 407] | < 5 |
| CC1CC(C)CN(S(=O)(=O)c2ccc3oc(C(=O)NCC4CCCO4)cc3c2)C1 (stereo not drawn) [compound 408] | < 5 |
| Cc1c(C(=O)N2CCCCCC2)oc2ccc(S(=O)(=O)N3CCCC(C)C3)cc12 (stereo not drawn) [compound 409] | < 5 |
| CCOC(=O)N1CCN(C(=O)c2cc3cc(S(=O)(=O)N4CCCCCC4)ccc3o2)CC1 [compound 410] | 5 to 20 |
| Cc1c(C(=O)NC(C)C)oc2ccc(S(=O)(=O)N3CCC(C)CC3)cc12 [compound 411] | < 5 |
| CC1CCN(S(=O)(=O)c2ccc3[nH]c(C(=O)NC4CCCC4)cc3c2)CC1 [compound 412] | < 5 |
| Cc1c(C(=O)N2CCCC(C)C2)oc2ccc(S(=O)(=O)N3CCCC(C)C3)cc12 (stereo not drawn) [compound 413] | < 5 |
| Cc1c(C(=O)N2CCCC2)oc2ccc(S(=O)(=O)N3CC(C)CC(C)C3)cc12 (stereo not drawn) [compound 414] | < 5 |
| CCOC(=O)N1CCN(C(=O)c2cc3cc(S(=O)(=O)N4CC(C)CC(C)C4)ccc3[nH]2)CC1 (stereo not drawn) [compound 415] | < 5 |
| CN(Cc1ccccc1)C(=O)c1cc2cc(S(=O)(=O)N3CCCCCC3)ccc2[nH]1 [compound 416] | < 5 |
| CC1CCN(S(=O)(=O)c2ccc3oc(C(=O)N4CCCC(C)C4)cc3c2)CC1 (stereo not drawn) [compound 417] | 5 to 20 |
| O=C(NCC1CCOCC1)c1cc2cc(S(=O)(=O)N3CCCCCC3)ccc2[nH]1 [compound 418] | < 5 |
| CC1CC(C)CN(S(=O)(=O)c2ccc3c(c2)cc(C(=O)N2CCN(C)CC2)n3S(=O)(=O)c2ccccc2)C1 (stereo not drawn) [compound 419] | 5 to 20 |
| CCCCN(C)C(=O)c1[nH]c2ccc(S(=O)(=O)N3CC(C)CC(C)C3)cc2c1C (stereo not drawn) [compound 420] | < 5 |
| O=C(NC1CC1)c1cc2cc(S(=O)(=O)N3CCCCCC3)ccc2n1S(=O)(=O)c1ccccc1 [compound 421] | < 5 |
| CCCCN(C)C(=O)c1cc2cc(S(=O)(=O)N3CCCCCC3)ccc2[nH]1 [compound 422] | < 5 |
| CCN(CC)C(=O)c1oc2ccc(S(=O)(=O)N3CC(C)CC(C)C3)cc2c1C (stereo not drawn) [compound 423] | < 5 |
| Cc1c(C(=O)NC2CCCCC2)[nH]c2ccc(S(=O)(=O)N3CCC(C)CC3)cc12 [compound 424] | 5 to 20 |
| CC1CC(C)CN(C(=O)c2cc3cc(S(=O)(=O)N4CC(C)CC(C)C4)ccc3[nH]2)C1 (stereo not drawn) [compound 425] | < 5 |
